Source: patent US20160289663A1, “NOVEL CHIMERIC GENE ATF7IP-PDGFRB OF ACUTE LYMPHOBLASTIC LEUKEMIA” (priority 2013, published 2016)
Counter-ions that a name gives are not always drawn.

Tests used:
[1] = tested on: myeloid malignancies bearing PDGFRB fusion genes; details: without secondary resistance; Cheah et al., Blood 2014; cited from earlier work
[2] = tested on: ATF7IP-PDGFRB-expressing Ba/F3 cells; assay: Cell proliferation (WST) assay, ATF7IP-PDGFRB Ba/F3 transfectants without conditioned medium; details: for effect on viable cell number: next-generation TKIs, FIG. 13
Procedure: (A) ATF7IP-PDGFRB-expressing Ba/F3 cells in the absence of WEHI-3-conditioned medium (CM) and Mock Ba/F3 cells in the presence of CM were each treated with or without either the PI3 kinase inhibitor LY294002 or the MEK inhibitor PD98059 at the indicated concentrations for 24 hours. Subsequently, the number of living cells was estimated for each type of the cells by WST assay in the same way as in FIG. 5B. The ratio of the OD value obtained from the inhibitor-treated cells relative to that obtained from the inhibitor-untreated cells was calculated and expressed as the means±SEM of triplicates. (B) ATF7IP-PDGFRB-expressing Ba/F3 cells were treated with PD98059 in the presence or absence of CM, and examined in the same way as in (A). […]
The data were analyzed by F-test. P values less than 0.05 were considered significant. All experiments were performed at least three times to calculate means and SEM values.

[3] = tested on: Mock Ba/F3 cells; assay: Cell proliferation (WST) assay, Mock Ba/F3 cells with WEHI-3-conditioned medium; format: cell-based, mouse; details: 24 hours, presence of conditioned medium, FIG. 10A
Procedure: The data were analyzed by F-test. P values less than 0.05 were considered significant.

[4] = tested on: phosphorylation of MAP kinases/AKT and PDGFRB in ATF7IP-PDGFRB-expressing Ba/F3 cells; assay: Immunoblot of MAP kinase/AKT/PDGFRB phosphorylation in ATF7IP-PDGFRB Ba/F3 cells; format: cell-based, mouse; details: immunoblotting, FIG. 11
Procedure: Cell lysates were prepared from the same sample preparations as in FIG. 10. Immunoblot analysis was performed in the same way as in FIG. 8. Abbreviations: None, without inhibitor; LY, with LY294002; and PD, with PD98059.
Immunoblot analysis was performed as in FIG. 8.
Immunoblot analysis was performed as described previously (Kiyokawa, et al., J Biol Chem, 1997, 272, 18656-18665; Tomita, et al., Leukemia Research, 2014, 38, 361-370) using the following antibodies: anti-phosphotyrosine (4G10; Merck Millipore), anti-PDGF receptor β (28E1), anti-phospho-PDGF receptor β Tyr751 (C63G6), anti-phospho-PDGF receptor β Tyr 771 (76D6), anti-phospho-PDGF receptor β Tyr1009 (42F9), anti-phospho-PDGF receptor β Tyr1021 (6F10), anti-phospho-p44/42 MAPK (ERK1/2, Tyr202/Tyr204), anti-phospho-p38 MAPK (Thr180/Tyr182), anti-phospho-JNK (Thr183/Tyr185, 81E11), anti-phospho-AKT (Ser473), anti-phospho-PLCγ1 (Tyr783), anti-Casitas B-lineage lymphoma binding (Cbl), anti-p38 MAPK antibody and anti-JNK antibody (Cell Signaling Technology); anti-ATF7IP (MCAF1) (Abcam, Cambridge, UK); anti-ERK, anti-PLCγ, (BD Biosciences, San Jose, Calif., USA); anti-β-actin (Sigma-Aldrich, St. Louis, Mo.); and horseradish peroxidase (HRP)-conjugated secondary antibody (Dako, Glostrup, Denmark). […]

[5] = tested on: recurrent Ph-like acute lymphoblastic leukemia bearing ATF7IP/PDGFRB translocation; assay: Dasatinib monotherapy case report, MRD monitored by leukemia-specific genomic PCR; format: in vivo, human; details: one patient, 66 mg/m^2/day
Procedure: (A) The therapeutic response was evaluated by fluorescence in situ hybridization (FISH), RT-PCR (Kobayashi K., et al., Br J Haematol, 2014, 165, 836-841), and genomic PCR.
This example describes a monotherapy with the tyrosine kinase inhibitor (TKI) dasatinib in a patient with recurrent Ph-like acute lymphoblastic leukemia bearing ATF7IP/PDGFRB translocation.

[6] = Mus musculus, BaF3, 48 h, read-out: viable cell number

Cc1ccc(NC(=O)c2ccc(CN3CCN(C)CC3)cc2)cc1Nc1nccc(-c2cccnc2)n1 [imatinib mesylate]
10-year overall survival rate [1]: 90%

COc1cccc(-c2cc(=O)c3ccccc3o2)c1N [PD98059]
cell death ([2]; 24 hours, absence of conditioned medium, FIG. 10A): induced cell death | MEK inhibitor-induced cell death with simultaneous conditioned medium containing IL3 ([2]; presence of conditioned medium, FIG. 10B): partially avoided | cell death [3]: not in the Mock-expressing Ba/F3 cells | phosphorylation of MAP kinase [4]: markedly reduced

Cc1cn(-c2cc(NC(=O)c3ccc(C)c(Nc4nccc(-c5cccnc5)n4)c3)cc(C(F)(F)F)c2)cn1 [nilotinib]
effect on viable cell number [2]: effectively reduced the viable cell number

CNC(=O)c1cc(Oc2ccc(NC(=O)Nc3cc(C(C)(C)C)nn3-c3ccc4ncccc4c3)c(F)c2)ccn1 [rebastinib]
effect on viable cell number [2]: effectively reduced the viable cell number

Cc1nc(Nc2ncc(C(=O)Nc3c(C)cccc3Cl)s2)cc(N2CCN(CCO)CC2)n1 [dasatinib]
viability at 0.0025 µM [2, 6]: < 10% | duration of complete molecular remission [5]: ≥ 12 months | time to disappearance of MRD ([5]; leukemia-specific genomic PCR): ≤ 3 months

Cc1ccc(NC(=O)c2ccc(CN3CCN(C)CC3)cc2)cc1Nc1nccc(-c2cccnc2)n1 [imatinib]
cell proliferation ([2]; IL-3-independent proliferation, exposure to TKI): significantly inhibited in a concentration-dependent manner | viability at 0.025 µM [2, 6]: < 10%
